Measurements reported in ChEMBL document CHEMBL1201862, “PubChem BioAssay data set” (2004).
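96-well plates; 48 h exposure; 5 concentrations. Endpoints by linear interpolation between flanking doses. Not reached: highest tested concentration assigned. Abbreviation: GI50, concentration required for 50% inhibition of growth.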 Active and inactive are the calls of the source. Cut-off read from the data, not from the text of the source: active = GI50 up to about 1.1 µM and inactive = higher.

Tests used:
Assay in all cases: NCI anticancer screen, dose series, 48 h
[1] = system: 786-0
[2] = system: BT-549
[3] = system: DLD-1
[4] = system: DU-145
[5] = system: EKVX
[6] = system: HCC 2998
[7] = system: HOP-62
[8] = system: HT-29
[9] = system: M14
[10] = system: MDA-N
[11] = system: NCI-H226
[12] = system: NCI-H23
[13] = system: NCI-H460
[14] = system: NCI-H522
[15] = system: OVCAR-4
[16] = system: OVCAR-5
[17] = system: OVCAR-8
[18] = system: SK-MEL-2
[19] = system: SNB-19
[20] = system: T47D

Q: Which results are given for `COc1ccc2c(c1)c1ccc3c(c1n2C)C(=O)C=CC3=O`?
A: GI50 [1]: 6.78 µM (inactive); GI50 [2]: 3.77 µM (inactive); GI50 [3]: 7.4 µM (inactive); GI50 [4]: 9.77 µM (inactive); GI50 [5]: 14.1 µM (inactive); GI50 [6]: 17.9 µM (inactive); GI50 [7]: 35.5 µM (inactive); GI50 [8]: 14 µM (inactive); GI50 [9]: 10.4 µM (inactive); GI50 [10]: 8910 nM (inactive); GI50 [11]: 14.3 µM (inactive); GI50 [12]: 13 µM (inactive); GI50 [13]: 26.9 µM (inactive); GI50 [14]: 3.15 µM (inactive); GI50 [15]: 8.38 µM (inactive); GI50 [16]: 15.2 µM (inactive); GI50 [17]: 11.4 µM (inactive); GI50 [18]: 17.2 µM (inactive); GI50 [19]: 26 µM (inactive); GI50 [20]: 2.21 µM (inactive)

Q: For `N#CC(C(=N/NC(N)=S)/C(=N\NC(N)=S)C(C#N)c1ccccc1)c1ccccc1` (configuration not stated), which GI50 [1] is on record?
A: Its GI50 is > 10 µM (inactive).

Q: What about the GI50 [3] of the same molecule?
A: The GI50 was > 10 µM (inactive).

Q: What about the GI50 [5] of the same molecule?
A: Its GI50 is > 10 µM (inactive).

Q: And the GI50 [6]?
A: The GI50 was > 10 µM (inactive).

Q: And the GI50 [7]?
A: The GI50 was > 10 µM (inactive).

Q: And the GI50 [8]?
A: The GI50 was > 10 µM (inactive).

Q: What about the GI50 [9] of the same molecule?
A: The GI50 was > 10 µM (inactive).

Q: And the GI50 [11]?
A: Its GI50 is > 10 µM (inactive).

Q: What about the GI50 [12] of the same molecule?
A: The GI50 was > 10 µM (inactive).

Q: And the GI50 [13]?
A: Its GI50 is > 10 µM (inactive).

Q: What about the GI50 [14] of the same molecule?
A: Its GI50 is > 10 µM (inactive).

Q: What about the GI50 [15] of the same molecule?
A: Its GI50 is > 10 µM (inactive).

Q: And the GI50 [16]?
A: Its GI50 is > 10 µM (inactive).

Q: And the GI50 [17]?
A: Its GI50 is > 10 µM (inactive).

Q: And the GI50 [18]?
A: The GI50 was > 10 µM (inactive).

Q: What about the GI50 [19] of the same molecule?
A: Its GI50 is > 10 µM (inactive).

Q: `Cc1cc(Br)ccc1NC1=CC(=O)C(=O)c2ccccc21` was tested. Which GI50 [1] did it give?
A: The GI50 was 38.5 µM (inactive).

Q: And the GI50 [3]?
A: Its GI50 is > 100 µM (inactive).

Q: And the GI50 [5]?
A: Its GI50 is > 100 µM (inactive).

Q: And the GI50 [6]?
A: Its GI50 is 62.1 µM (inactive).

Q: What about the GI50 [7] of the same molecule?
A: The GI50 was > 100 µM (inactive).

Q: What about the GI50 [8] of the same molecule?
A: Its GI50 is 51.2 µM (inactive).

Q: What about the GI50 [9] of the same molecule?
A: Its GI50 is 52.1 µM (inactive).

Q: What about the GI50 [11] of the same molecule?
A: The GI50 was 39.8 µM (inactive).

Q: And the GI50 [12]?
A: Its GI50 is 10.9 µM (inactive).

Q: What about the GI50 [13] of the same molecule?
A: Its GI50 is 27.9 µM (inactive).

Q: What about the GI50 [14] of the same molecule?
A: Its GI50 is 30.8 µM (inactive).

Q: What about the GI50 [15] of the same molecule?
A: The GI50 was 9.08 µM (inactive).

Q: And the GI50 [16]?
A: The GI50 was 70.8 µM (inactive).

Q: What about the GI50 [17] of the same molecule?
A: The GI50 was 42.2 µM (inactive).

Q: And the GI50 [18]?
A: The GI50 was 23.6 µM (inactive).

Q: What about the GI50 [19] of the same molecule?
A: Its GI50 is 24.2 µM (inactive).

Q: Which results are given for `CN(C)CCCN1N=Nc2cccc3cccc1c23`?
A: GI50 [1]: 17.9 µM (inactive); GI50 [3]: > 60.1 µM (inactive); GI50 [5]: > 100 µM (inactive); GI50 [6]: > 59 µM (inactive); GI50 [7]: > 100 µM (inactive); GI50 [8]: 33.3 µM (inactive); GI50 [9]: > 43.4 µM (inactive); GI50 [11]: > 100 µM (inactive); GI50 [12]: > 100 µM (inactive); GI50 [13]: 33.1 µM (inactive); GI50 [14]: 50.9 µM (inactive); GI50 [15]: 20.3 µM (inactive); GI50 [16]: > 91.4 µM (inactive); GI50 [17]: > 77.3 µM (inactive); GI50 [18]: > 100 µM (inactive); GI50 [19]: > 100 µM (inactive)

Q: `CCC(/C=C/C1OC(=O)C=CC1C)=C\C(C)C/C=C/C(C)=C/C(C)C(=O)C(C)C(O)C(C)C/C(C)=C/C(=O)O` (configuration not stated) was tested. Which GI50 [1] did it give?
A: The GI50 was < 1e-06 µM (active).

Q: What about the GI50 [2] of the same molecule?
A: The GI50 was 2.22e-06 µM (active).

Q: And the GI50 [3]?
A: Its GI50 is 1.43 µM (inactive).

Q: What about the GI50 [4] of the same molecule?
A: Its GI50 is 0.000264 µM (active).

Q: And the GI50 [5]?
A: Its GI50 is 1.92e-05 µM (active).

Q: And the GI50 [6]?
A: Its GI50 is 6.76e-06 µM (active).

Q: And the GI50 [7]?
A: Its GI50 is 2.62 µM (inactive).

Q: And the GI50 [8]?
A: Its GI50 is 3.01e-06 µM (active).

Q: And the GI50 [9]?
A: The GI50 was 5.27e-06 µM (active).

Q: And the GI50 [10]?
A: Its GI50 is 0.00213 nM (active).

Q: What about the GI50 [11] of the same molecule?
A: Its GI50 is 1.67 µM (inactive).

Q: What about the GI50 [12] of the same molecule?
A: Its GI50 is 1.04 µM (active).

Q: What about the GI50 [14] of the same molecule?
A: The GI50 was 0.955 µM (active).

Q: And the GI50 [15]?
A: Its GI50 is 1.64 µM (inactive).

Q: And the GI50 [16]?
A: The GI50 was 6.65 µM (inactive).

Q: And the GI50 [17]?
A: Its GI50 is 3.14 µM (inactive).

Q: What about the GI50 [18] of the same molecule?
A: The GI50 was 4.31 µM (inactive).

Q: What about the GI50 [19] of the same molecule?
A: Its GI50 is 3.09 µM (inactive).

Q: What does the source list for `CC(=O)OCC1OC(OC2CC3C(C)(C)C(OC(C)=O)CC[C@]3(C)C3CCC45CC4(CC[C@H]5C(C)CC(O)C4OC4(C)C)[C@]23C)C(O)C(O)C1O` (some centres not stated)?
A: GI50 [1]: 2.7 µM (inactive); GI50 [3]: 1.79 µM (inactive); GI50 [5]: 3.11 µM (inactive); GI50 [6]: 1.37 µM (inactive); GI50 [7]: 5.56 µM (inactive); GI50 [8]: 0.92 µM (active); GI50 [9]: 2.03 µM (inactive); GI50 [11]: 5.06 µM (inactive); GI50 [12]: 2.86 µM (inactive); GI50 [13]: 1.79 µM (inactive); GI50 [14]: 1.59 µM (inactive); GI50 [15]: 1.48 µM (inactive); GI50 [16]: 1.03 µM (active); GI50 [17]: 2.2 µM (inactive); GI50 [18]: 1.84 µM (inactive); GI50 [19]: 4.06 µM (inactive)

Q: Which GI50 [1] does the source give for `COc1ccc2c(=O)c(-c3cc(OC)c(OC)cc3OC)coc2c1` here?
A: The GI50 was 4.11 µM (inactive).

Q: What about the GI50 [2] of the same molecule?
A: The GI50 was > 100 µM (inactive).

Q: What about the GI50 [3] of the same molecule?
A: Its GI50 is 3.95 µM (inactive).

Q: And the GI50 [4]?
A: Its GI50 is 2.86 µM (inactive).

Q: And the GI50 [5]?
A: The GI50 was 36.1 µM (inactive).

Q: And the GI50 [6]?
A: The GI50 was 2.94 µM (inactive).

Q: And the GI50 [7]?
A: The GI50 was 3.72 µM (inactive).

Q: What about the GI50 [8] of the same molecule?
A: The GI50 was 2.35 µM (inactive).

Q: And the GI50 [9]?
A: Its GI50 is 4.49 µM (inactive).

Q: And the GI50 [10]?
A: Its GI50 is 262 nM (active).

Q: And the GI50 [11]?
A: The GI50 was > 43.2 µM (inactive).

Q: And the GI50 [12]?
A: Its GI50 is 8.67 µM (inactive).

Q: What about the GI50 [13] of the same molecule?
A: The GI50 was 2.48 µM (inactive).

Q: What about the GI50 [14] of the same molecule?
A: Its GI50 is 1.28 µM (inactive).

Q: And the GI50 [15]?
A: Its GI50 is > 100 µM (inactive).

Q: And the GI50 [16]?
A: Its GI50 is > 100 µM (inactive).

Q: And the GI50 [17]?
A: The GI50 was 9.73 µM (inactive).

Q: And the GI50 [18]?
A: The GI50 was 2.27 µM (inactive).

Q: And the GI50 [19]?
A: The GI50 was 15.3 µM (inactive).

Q: What about the GI50 [20] of the same molecule?
A: The GI50 was 6.7 µM (inactive).
